Assay results from patent US10851083B2, “Benzoimidazoles as prolyl hydroxylase inhibitors” (Janssen Pharmaceutica NV, priority 2008, dated 2020).

Columns and labels:
Hep-3B cells = experiment: Cellular assay: EPO secretion in Hep-3B cells; format: cell-based, human; parameters: EPO secretion, % of control compound: dose or concentration left out as unconfirmed; conditions: Homo sapiens, Hep3B, 24 h, EPO secretion as percentage of control compound 7-[(4-Chloro-phenyl)-(5-methyl-isoxazol-3-ylamino)-methyl]-quinolin-8-ol, read-out: Cellular % EPO Stimulation
human PHD2181-417 = human PHD2181-417 (Homo sapiens (Human), UniProt Q9GZT9); experiment: PHD2 enzyme activity assay ([14C]-succinic acid production); format: biochemical; conditions: PHD2181-417 polypeptide, HIF-1α peptide 10 μM, [5-14C]-2-oxoglutaric acid, 30 min pre-incubation, tested 10 μM to 3 nM;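 note: reaction ran 10 min with compound in Tris pH 7.5 buffer with catalase, DTT and ascorbate, labelled succinate freed of leftover 2-oxoglutarate by DNP precipitation, then beta counted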
Sequence of human PHD2181-417 (Q9GZT9 181-417): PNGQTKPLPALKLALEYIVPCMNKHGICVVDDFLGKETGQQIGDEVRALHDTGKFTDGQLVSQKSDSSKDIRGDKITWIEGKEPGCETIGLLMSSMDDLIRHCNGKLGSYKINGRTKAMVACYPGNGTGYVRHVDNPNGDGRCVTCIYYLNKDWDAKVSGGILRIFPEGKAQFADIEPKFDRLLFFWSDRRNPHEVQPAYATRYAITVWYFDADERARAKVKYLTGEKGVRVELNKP

Row | Compound | Enzyme pIC50 (human PHD2181-417) | IC50 (human PHD2181-417; read-out: Enzyme pIC50 (converted)) | EPO secretion, % of control compound (Hep-3B cells)
1 | O=C(O)c1cnn(-c2nc3cc(Sc4ccc(Cl)c(Cl)c4)c(Cl)cc3[nH]2)c1 [Example 63, 1-[6-Chloro-5-(3,4-dichloro-phenylsulfanyl)-1H-benzoimidazol-2-yl]-1H-pyrazole-4-carboxylic Acid] | 6.18 |  | 26.5%
2 | O=C(O)c1cnn(-c2nc3c(Br)c(F)c(F)cc3[nH]2)c1 [Example 32, 1-(4-Bromo-5,6-difluoro-1H-benzoimidazol-2-yl)-1H-pyrazole-4-carboxylic Acid] | 6.7 |  | 33%
3 | Cc1cc(Br)cc2nc(-n3cc(C(=O)O)cn3)[nH]c12 [Example 49, 1-(5-Bromo-7-methyl-1H-benzoimidazol-2-yl)-1H-pyrazole-4-carboxylic Acid] | 6.1 |  | 24%
4 | CC(C)S(=O)(=O)c1cc2[nH]c(-n3cc(C(=O)O)cn3)nc2cc1Cl [Example 101, 1-[5-Chloro-6-(propane-2-sulfonyl)-1H-benzoimidazol-2-yl]-1H-pyrazole-4-carboxylic Acid] | 7.3 |  | 62.2%
5 | Cc1cc(C)c(CS(=O)(=O)c2cc3nc(-n4cc(C(=O)O)cn4)[nH]c3cc2Cl)c(C)c1 [Example 90, 1-[6-Chloro-5-(2,4,6-trimethyl-phenylmethanesulfonyl)-1H-benzoimidazol-2-yl]-1H-pyrazole-4-carboxylic Acid] | 7.3 |  | 8.25%
6 | O=C(O)c1cnn(-c2nc3cc(N4CCOCC4)c(Cl)cc3[nH]2)c1 [Example 45, 1-(6-Chloro-5-morpholin-4-yl-1H-benzoimidazol-2-yl)-1H-pyrazole-4-carboxylic Acid] | 6.6 |  | 30.9%
7 | CS(=O)(=O)c1cc2[nH]c(-n3cc(C(=O)O)cn3)nc2cc1Cl [Example 99, 1-(5-Chloro-6-methanesulfonyl-1H-benzoimidazol-2-yl)-1H-pyrazole-4-carboxylic Acid] | 7.4 |  | 34.9%
8 | O=C(O)c1ccc2[nH]c(-n3cc(C(=O)O)cn3)nc2c1 [Example 47, 2-(4-Carboxy-pyrazol-1-yl)-1H-benzoimidazole-5-carboxylic Acid] | 6.6 |  | 11%
9 | O=C(O)c1cnn(-c2nc3cc(Sc4ccc(Cl)cc4)c(Cl)cc3[nH]2)c1 [Example 61, 1-[6-Chloro-5-(4-chloro-phenylsulfanyl)-1H-benzoimidazol-2-yl]-1H-pyrazole-4-carboxylic Acid] | 7.07 |  | 101%
10 | CS(=O)(=O)c1cc2[nH]c(-n3cc(C(=O)O)cn3)nc2cc1F [Example 98, 1-(5-Fluoro-6-methanesulfonyl-1H-benzoimidazol-2-yl)-1H-pyrazole-4-carboxylic Acid] | 7.3 |  | 41.4%
11 | CC(C)(C)c1ccc(CSc2cc3nc(-n4cc(C(=O)O)cn4)[nH]c3cc2Cl)cc1 [Example 67, 1-[5-(4-tert-Butyl-benzylsulfanyl)-6-chloro-1H-benzoimidazol-2-yl]-1H-pyrazole-4-carboxylic Acid] | 7.2 |  | 11.7%
12 | CCCSc1cc2[nH]c(-n3cc(C(=O)O)cn3)nc2cc1OC(F)(F)F [Example 81, 1-(6-Propylsulfanyl-5-trifluoromethoxy-1H-benzoimidazol-2-yl)-1H-pyrazole-4-carboxylic Acid] | 7 |  | 
13 | CC(C)Sc1cc2[nH]c(-n3cc(C(=O)O)cn3)nc2cc1OC(F)(F)F [Example 80, 1-(6-Isopropylsulfanyl-5-trifluoromethoxy-1H-benzoimidazol-2-yl)-1H-pyrazole-4-carboxylic Acid] | 7 |  | 
14 | CC(C)Sc1cc2[nH]c(-n3cc(C(=O)O)cn3)nc2cc1C(F)(F)F [Example 73, 1-(6-Isopropylsulfanyl-5-trifluoromethyl-1H-benzoimidazol-2-yl)-1H-pyrazole-4-carboxylic Acid] | 7.2 |  | 

More lines, main results first:

Row | Enzyme pIC50 (human PHD2181-417) | IC50 (human PHD2181-417; read-out: Enzyme pIC50 (converted)) | Compound | EPO secretion, % of control compound (Hep-3B cells)
15 | 6.6 |  | O=C(O)c1cnn(-c2nc3cc(NC(=O)c4ccccc4)c(Cl)cc3[nH]2)c1 [Example 141, 1-(5-Benzoylamino-6-chloro-1H-benzoimidazol-2-yl)-1H-pyrazole-4-carboxylic Acid] | 33%
16 | 6.4 |  | O=C(CN1CCOCC1)Nc1cc2nc(-n3cc(C(=O)O)cn3)[nH]c2cc1Cl [Example 142, 1-[6-Chloro-5-(2-morpholin-4-yl-acetylamino)-1H-benzoimidazol-2-yl]-1H-pyrazole-4-carboxylic Acid] | 17%
17 | 7.2 |  | O=C(O)c1cnn(-c2nc3cc(Oc4ccc(Cl)cc4F)c(Cl)cc3[nH]2)c1 [Example 146, 1-[6-Chloro-5-(4-chloro-2-fluoro-phenoxy)-1H-benzoimidazol-2-yl]-1H-pyrazole-4-carboxylic Acid] | 49.9%
18 | 5.5 |  | O=C(O)c1cnn(-c2nc3nc4ccccc4nc3[nH]2)c1 [Example 182, 1-(1H-Imidazo[4,5-b]quinoxalin-2-yl)-1H-pyrazole-4-carboxylic Acid] | 13.4%
19 | 6.9 |  | CCSc1cc2nc(-n3cc(C(=O)O)cn3)[nH]c2cc1F [Example 151, 1-(5-Ethylsulfanyl-6-fluoro-1H-benzoimidazol-2-yl)-1H-pyrazole-4-carboxylic Acid] | 107%
20 | 6.4 |  | O=C(O)c1cnn(-c2nc3cc(SCc4ccc(Cl)c(Cl)c4)c(Cl)cc3[nH]2)c1 [Example 167, 1-[6-Chloro-5-(3,4-dichloro-benzylsulfanyl)-1H-benzoimidazol-2-yl]-1H-pyrazole-4-carboxylic Acid] | 25.8%
21 | 7.4 |  | O=C(O)c1cnn(-c2nc3cc(S(=O)(=O)Nc4ccccc4)c(Cl)cc3[nH]2)c1 [Example 186, 1-(6-Chloro-5-phenylsulfamoyl-1H-benzoimidazol-2-yl)-1H-pyrazole-4-carboxylic Acid] | 39.1%
22 | 7.2 |  | O=C(O)c1cnn(-c2nc3cc([S+]([O-])c4ccc(Cl)cc4)c(Cl)cc3[nH]2)c1 (stereo not drawn) [Example 107] | 47.6%
23 | 6.2 |  | O=C(O)c1cnn(-c2nc3cc(NCc4ccccc4)c(Cl)cc3[nH]2)c1 [Example 132, 1-(5-Benzylamino-6-chloro-1H-benzoimidazol-2-yl)-1H-pyrazole-4-carboxylic Acid] | 52.6%
24 | 7.7 |  | O=C(O)c1cnn(-c2nc3cc(S(=O)(=O)Cc4ccc(C(F)(F)F)cc4)c(Cl)cc3[nH]2)c1 [Example 179, 1-[6-Chloro-5-(4-trifluoromethyl-phenylmethanesulfonyl)-1H-benzoimidazol-2-yl]-1H-pyrazole-4-carboxylic Acid] | 
25 | 7.7 |  | Cc1ccc(CS(=O)(=O)c2cc3nc(-n4cc(C(=O)O)cn4)[nH]c3cc2Cl)cc1 [Example 178, 1-(6-Chloro-5-p-tolylmethanesulfonyl-1H-benzoimidazol-2-yl)-1H-pyrazole-4-carboxylic Acid] | 
26 | 7.4 |  | CCCS(=O)(=O)c1cc2nc(-n3cc(C(=O)O)cn3)[nH]c2cc1F [Example 157, 1-(6-Fluoro-5-propylsulfonyl-1H-benzoimidazol-2-yl)-1H-pyrazole-4-carboxylic Acid] | 
27 |  | 200 nM | Cc1ccc(CSc2cc3nc(-n4cc(C(=O)O)cn4)[nH]c3cc2Cl)cc1 [Example 169, 1-[6-Chloro-5-(4-methyl-benzylsulfanyl)-1H-benzoimidazol-2-yl]-1H-pyrazole-4-carboxylic Acid] | 
28 | 6.9 |  | CC(C)Sc1cc2nc(-n3cc(C(=O)O)cn3)[nH]c2cc1F [Example 153, 1-(6-Fluoro-5-isopropylsulfanyl-1H-benzoimidazol-2-yl)-1H-pyrazole-4-carboxylic Acid] | 
29 | 7.4 |  | CC(C)S(=O)(=O)c1cc2[nH]c(-n3cc(C(=O)O)cn3)nc2cc1C(F)(F)F [Example 103, 1-[6-(Propane-2-sulfonyl)-5-trifluoromethyl-1H-benzoimidazol-2-yl]-1H-pyrazole-4-carboxylic Acid] | 
30 | 7.5 |  | CCCS(=O)(=O)c1cc2[nH]c(-n3cc(C(=O)O)cn3)nc2cc1C(F)(F)F [Example 104, 1-[6-(Propane-1-sulfonyl)-5-trifluoromethyl-1H-benzoimidazol-2-yl]-1H-pyrazole-4-carboxylic Acid] | 
31 | 7.6 |  | O=C(O)c1cnn(-c2nc3cc(S(=O)(=O)Cc4ccc(C(F)(F)F)cc4C(F)(F)F)c(Cl)cc3[nH]2)c1 [Example 180, 1-[5-(2,4-Bis-trifluoromethyl-phenylmethanesulfonyl)-6-chloro-1H-benzoimidazol-2-yl]-1H-pyrazole-4-carboxylic Acid] | 
32 | 7.3 |  | CC(C)S(=O)(=O)c1cc2nc(-n3cc(C(=O)O)cn3)[nH]c2cc1F [Example 158, 1-(6-Fluoro-5-isopropylsulfonyl-1H-benzoimidazol-2-yl)-1H-pyrazole-4-carboxylic Acid] | 
33 | 7.5 |  | N#Cc1ccccc1-c1ccc(CSc2cc3nc(-n4cc(C(=O)O)cn4)[nH]c3cc2Cl)cc1 [Example 172, 1-[6-Chloro-5-(2′-cyano-biphenyl-4-ylmethylsulfanyl)-1H-benzoimidazol-2-yl]-1H-pyrazole-4-carboxylic Acid] | 
34 | 7.4 |  | CC(C)S(=O)(=O)c1cc2[nH]c(-n3cc(C(=O)O)cn3)nc2cc1OC(F)(F)F [Example 105, 1-[6-(Propane-2-sulfonyl)-5-trifluoromethoxy-1H-benzoimidazol-2-yl]-1H-pyrazole-4-carboxylic Acid] | 
